Data reported in US11192867B2, “Microbiocidal oxadiazole derivatives” (SYNGENTA PARTICIPATIONS AG, priority 2016, dated 2021).

Assays:
[1] = system: Phakopsora pachyrhizi; test: Fungicidal activity against Phakopsora pachyrhizi / soybean / leaf disc preventative (Asian soybean rust); format: in vivo; conditions: foliar, 200 ppm in the applied formulation, soybean leaf disks, vs untreated control, read-out: disease control
Outline: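 Soybean leaf discs on water agar sprayed with compound diluted in water, then inoculated with spores on the lower surface one day later. Kept 24-36 h dark, 20 °C, 75% rh, then 12 h light/12 h dark. Percent disease control versus untreated scored 12-14 days after application.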

[2] = system: Glomerella lagenarium (Colletotrichum lagenarium); test: Fungicidal activity against Glomerella lagenarium (Colletotrichum lagenarium) liquid culture / cucumber / preventative (anthracnose); format: cell-based; conditions: Colletotrichum orbiculare, 72 h; 20 ppm in the applied formulation; liquid culture (PDB), growth inhibition measured photometrically 3 to 4 days after application; vs untreated control; read-out: disease control
Outline: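 In liquid culture, cryo-stored conidia in potato dextrose broth were exposed to compound delivered from DMSO solution. Growth inhibition was measured photometrically after 3 to 4 days at 24° C.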

[3] = system: Puccinia recondita f. sp. Tritici; test: Fungicidal activity against Puccinia recondita f. sp. Tritici / wheat / leaf disc preventative (brown rust); format: in vivo; conditions: foliar, 200 ppm in the applied formulation, wheat leaf segments cv. Kanzler, inoculated 1 day after application, vs untreated control, read-out: disease control
Outline: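 Wheat leaf segments (cv. Kanzler) on water agar were sprayed with test compound (DMSO stock diluted in 0.025% Tween20/water), then spore-inoculated 1 day later. Incubation at 19° C., 75% rh, 12 h light/12 h dark; percent disease control versus untreated segments scored 7 to 9 days after application. Tested at 200 ppm.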

[4] = system: Puccinia recondita f. sp. Tritici; test: Fungicidal activity against Puccinia recondita f. sp. Tritici / wheat / leaf disc curative (brown rust); format: in vivo; conditions: foliar, 24 h, 200 ppm in the applied formulation, wheat leaf segments cv. Kanzler, applied 1 day after inoculation, vs untreated control, read-out: disease control
Protocol: Leaf disks or leaf segments of various plant species are cut from plants grown in a greenhouse. The cut leaf disks or segments are placed in multiwell plates (24-well format) onto water agar. The leaf disks are sprayed with a test solution before (preventative) or after (curative) inoculation. Compounds to be tested are prepared as DMSO solutions (max. 10 mg/ml) which are diluted to the appropriate concentration with 0.025% Tween20 just before spraying. The inoculated leaf disks or segments are incubated under defined conditions (temperature, relative humidity, light, etc.) according to the respective test system. A single evaluation of disease level is carried out 3 to 14 days after inoculation, depending on the pathosystem. Percent disease control relative to the untreated check leaf disks or segments is then calculated.
Wheat leaf segments cv. Kanzler are placed on agar in multiwell plates (24-well format). The leaf segments are then inoculated with a spore suspension of the fungus. Plates were stored in darkness at 19° C. and 75% relative humidity. The formulated test compound diluted in water was applied 1 day after inoculation. The leaf segments were incubated at 19° C. and 75% relative humidity under a light regime of 12 hours light/12 hours darkness in a climate cabinet and the activity of a compound was assessed as percent disease control compared to untreated when an appropriate level of disease damage appears in untreated check leaf segments (6 to 8 days after application).
The following compounds at 200 ppm in the applied formulation give at least 80% disease control in this test when compared to untreated control leaf disks under the same conditions, which show extensive disease development.

C=CCON=CC(C)NC(=O)c1ccc(-c2noc(C(F)(F)F)n2)cc1 (centres unmarked) [Compound 1.46, N-(2-allyloxyimino-1-methyl-ethyl)-4-[5-(trifluoromethyl)-1,2,4-oxadiazol-3-yl]benzamide]
≥ 80%: pest or weed control at 200 ppm [1] | inhibition of growth at 20 ppm [2] | pest or weed control at 200 ppm [3] | pest or weed control at 200 ppm [4]

CC(C)ON=CCNC(=O)c1ccc(-c2noc(C(F)(F)F)n2)cc1 [Compound 1.94, N-(2-isopropoxyimino-ethyl)-4-[5-(trifluoromethyl)-1,2,4-oxadiazol-3-yl]benzamide]
≥ 80%: pest or weed control at 200 ppm [1] | inhibition of growth at 20 ppm [2] | pest or weed control at 200 ppm [3] | pest or weed control at 200 ppm [4]

CC(CNC(=O)c1ccc(-c2noc(C(F)(F)F)n2)cc1)=NO[C@H](C)C(=O)O [Compound 1.117, (2R)-2-[[1-methyl-2-[[4-[5-(trifluoromethyl)-1,2,4-oxadiazol-3-yl]benzoyl]amino]ethylidene]amino] oxypropanoic acid]
≥ 80%: inhibition of growth at 20 ppm [2] | pest or weed control at 200 ppm [3] | pest or weed control at 200 ppm [4]

C=CCON=C(C)CNC(=O)c1ccc(-c2noc(C(F)(F)F)n2)cc1 [Compound 1.135, N-(2-allyloxyimino-propyl)-4-[5-(trifluoromethyl)-1,2,4-oxadiazol-3-yl]benzamide]
≥ 80%: pest or weed control at 200 ppm [1] | inhibition of growth at 20 ppm [2] | pest or weed control at 200 ppm [3] | pest or weed control at 200 ppm [4]

CC(C=NOC1COC1)NC(=O)c1ccc(-c2noc(C(F)(F)F)n2)cc1 (centres unmarked) [Compound 1.58, N-[1-methyl-2-(oxetan-3-yloxyimino)ethyl]-4-[5-(trifluoromethyl)-1,2,4-oxadiazol-3-yl]benzamide]
≥ 80%: pest or weed control at 200 ppm [1] | inhibition of growth at 20 ppm [2] | pest or weed control at 200 ppm [3] | pest or weed control at 200 ppm [4]

O=C(NCC=NOC1COC1)c1ccc(-c2noc(C(F)(F)F)n2)cc1 [Compound 1.102, N-[2-(oxetan-3-yloxyimino)ethyl]-4-[5-(trifluoromethyl)-1,2,4-oxadiazol-3-yl]benzamide]
≥ 80%: pest or weed control at 200 ppm [1] | inhibition of growth at 20 ppm [2] | pest or weed control at 200 ppm [3] | pest or weed control at 200 ppm [4]

CC(CNC(=O)c1ccc(-c2noc(C(F)(F)F)n2)cc1)=NOC1COC1 [Compound 1.146, N-[2-(oxetan-3-yloxyimino)propyl]-4-[5-(trifluoromethyl)-1,2,4-oxadiazol-3-yl]benzamide]
≥ 80%: pest or weed control at 200 ppm [1] | inhibition of growth at 20 ppm [2] | pest or weed control at 200 ppm [3] | pest or weed control at 200 ppm [4]

O=C(NCC=NOCC(F)(F)F)c1ccc(-c2noc(C(F)(F)F)n2)cc1 [Compound 1.95, N-[2-(2,2,2-trifluoroethoxy-imino)ethyl]-4-[5-(trifluoromethyl)-1,2,4-oxadiazol-3-yl]benzamide]
≥ 80%: pest or weed control at 200 ppm [1] | inhibition of growth at 20 ppm [2] | pest or weed control at 200 ppm [3] | pest or weed control at 200 ppm [4]

O=C(NCC=NOC1CCCCO1)c1ccc(-c2noc(C(F)(F)F)n2)cc1 (centres unmarked) [Compound 1.70, N-(2-tetrahydropyran-2-yloxyiminoethyl)-4-[5-(trifluoromethyl)-1,2,4-oxadiazol-3-yl]benzamide]
≥ 80%: pest or weed control at 200 ppm [1] | inhibition of growth at 20 ppm [2] | pest or weed control at 200 ppm [3] | pest or weed control at 200 ppm [4]

CC(C=NOCCN)NC(=O)c1ccc(-c2noc(C(F)(F)F)n2)cc1 (centres unmarked) [Compound 1.21, N-[2-(2-aminoethoxy-imino)-1-methyl-ethyl]-4-[5-(trifluoromethyl)-1,2,4-oxadiazol-3-yl]benzamide]
≥ 80%: pest or weed control at 200 ppm [1] | pest or weed control at 200 ppm [3] | pest or weed control at 200 ppm [4]

CC(C=NO[C@H](C)C(=O)O)NC(=O)c1ccc(-c2noc(C(F)(F)F)n2)cc1 (stereo partly drawn) [Compound 1.29, (2R)-2-[2-[[4-[5-(trifluoromethyl)-1,2,4-oxadiazol-3-yl]benzoyl]amino]propylideneamino] oxypropanoic acid]
≥ 80%: inhibition of growth at 20 ppm [2] | pest or weed control at 200 ppm [3] | pest or weed control at 200 ppm [4]

CC(C=NOCC(=O)O)NC(=O)c1ccc(-c2noc(C(F)(F)F)n2)cc1 (centres unmarked) [Compound 1.20, 2-[2-[[4-[5-(trifluoromethyl)-1,2,4-oxadiazol-3-yl]benzoyl]amino]propylidene-amino] oxyacetic acid]
≥ 80%: inhibition of growth at 20 ppm [2] | pest or weed control at 200 ppm [3] | pest or weed control at 200 ppm [4]

CC(C=NOC(C)C(=O)O)NC(=O)c1ccc(-c2noc(C(F)(F)F)n2)cc1 (centres unmarked) [Compound 1.37, 2-[2-[[4-[5-(trifluoromethyl)-1,2,4-oxadiazol-3-yl]benzoyl]amino]propylideneamino] oxypropanoic acid]
≥ 80%: inhibition of growth at 20 ppm [2] | pest or weed control at 200 ppm [3] | pest or weed control at 200 ppm [4]

CC(CNC(=O)c1ccc(-c2noc(C(F)(F)F)n2)cc1)=NOC(C)C(=O)O (centres unmarked) [Compound 1.125, 2-[[1-methyl-2-[[4-[5-(trifluoromethyl)-1,2,4-oxadiazol-3-yl]benzoyl]amino]ethylidene]amino] oxypropanoic acid]
≥ 80%: inhibition of growth at 20 ppm [2] | pest or weed control at 200 ppm [3] | pest or weed control at 200 ppm [4]

COc1cccc(CON=CC(C)NC(=O)c2ccc(-c3noc(C(F)(F)F)n3)cc2)c1 (centres unmarked) [Compound 1.17, N-[2-[(3-methoxyphenyl)methoxyimino]-1-methyl-ethyl]-4-[5-(trifluoromethyl)-1,2,4-oxadiazol-3-yl]benzamide]
≥ 80%: pest or weed control at 200 ppm [1] | inhibition of growth at 20 ppm [2] | pest or weed control at 200 ppm [4]

CON=CC(C)(C)NC(=O)c1ccc(-c2noc(C(F)(F)F)n2)cc1F [Compound 1.2, 2-fluoro-N-(2-methoxyimino-1,1-dimethyl-ethyl)-4-[5-(trifluoromethyl)-1,2,4-oxadiazol-3-yl]benzamide]
≥ 80%: pest or weed control at 200 ppm [1] | inhibition of growth at 20 ppm [2] | pest or weed control at 200 ppm [4]

CC(CNC(=O)c1ccc(-c2noc(C(F)(F)F)n2)cc1)=NO[C@@H](C)C(=O)O [Compound 1.120, (2S)-2-[[1-methyl-2-[[4-[5-(trifluoromethyl)-1,2,4-oxadiazol-3-yl]benzoyl]amino]ethylidene]amino] oxypropanoic acid]
≥ 80%: inhibition of growth at 20 ppm [2] | pest or weed control at 200 ppm [3] | pest or weed control at 200 ppm [4]

CC(C=NO[C@@H](C)C(=O)O)NC(=O)c1ccc(-c2noc(C(F)(F)F)n2)cc1 (stereo partly drawn) [Compound 1.32, (2S)-2-[2-[[4-[5-(trifluoromethyl)-1,2,4-oxadiazol-3-yl]benzoyl]amino]propylideneamino] oxypropanoic acid]
≥ 80%: inhibition of growth at 20 ppm [2] | pest or weed control at 200 ppm [3] | pest or weed control at 200 ppm [4]

C[C@H](ON=CCNC(=O)c1ccc(-c2noc(C(F)(F)F)n2)cc1)C(=O)O [Compound 1.77, (2S)-2-[2-[[4-[5-(trifluoromethyl)-1,2,4-oxadiazol-3-yl]benzoyl]amino]ethylideneamino] oxypropanoic acid]
≥ 80%: inhibition of growth at 20 ppm [2] | pest or weed control at 200 ppm [3] | pest or weed control at 200 ppm [4]
